We go through five compounds from patent US20230079389A1, “COMPOSITION FOR USE IN PREVENTION OR TREATMENT OF OESOPHAGEAL DISEASES LINKED TO EPITHELIAL BARRIER DEFECTS” (THELIAL B.V., priority 2020, published 2023).

In one data set the test system is Par6. In words: theLiTE assay: distribution of GFP-tagged Par6 in live follicular epithelia. Particulars: for Par6 modulation (distribution of Par6 protein): live follicular epithelia of Drosophila egg chamber, Par6-GFP. The text has this: The present inventors used a unique approach in order to identify compounds which reinforce the TJ system via the control of TJ initiation. Par6 was selected as the biological target; it acts as a regulator of tight junction initiation. Par6 has a polar distribution, with a defined zone of high abundance at one end of the cell. This Par6 distribution is key to the biological function, not just the absolute Par6 protein level.
Standard tools for RNA and protein level measurement are not adequate to discover compounds which target Par6 and the present inventors devised and implemented an assay where the distribution of Par6 in living tissues can be monitored: Thelial Live Targeted Epithelia (theLiTE™; U.S. Pat. No. 9,416,391).
The technology of theLITE™ allows monitoring the distribution of Par6—an intracellular protein that controls tight junction assembly. The assay was performed in live follicular epithelia of the egg chamber of the fruit fly Drosophila. Par6 was tagged with a green fluorescence protein (GFP) and its distribution within the cell was monitored by the GFP signal. […] This protein distribution is key to the biological function, not just the absolute protein level.
In theLiTE, the present inventors tested whether compounds modulate the distribution of Par6 protein in live follicular epithelia. In theLiTE more than 20 live egg chambers were exposed to test each compound and monitored for Par6 distribution after a set incubation time; any positive compounds were tested in three separate runs of experiments and over a broad range of concentrations. The full method is disclosed in the US patent document. […] The positive control in FIG. 2, indicated with a “+” sign, is Antimycin A, at a concentration of 40 micromolar. The negative control, indicated with a “−” sign is the solvent medium (Insect cell culture medium plus 10% dimethyl sulfoxide).

The test system of data set [1] is subjects suffering from GERD. The data set can be described thus: 6-weeks treatment of GERD subjects, synergy between active compounds. The format is in vivo, human. Particulars: for subjects reporting reduction in severity of GERD, as well as reduced usage of PPIs: 500 mg twice daily oral, 14 patients per group; for effect on GERD (in words): twice daily oral. On the procedure:
In a 6-weeks treatment, 50 subjects suffering from GERD receive a twice daily oral dose (1 hour before the morning and the evening meal) with either • Quercetin (500 mg); • Myricetin (500 mg); • Quercetin (500 mg) and Myricetin (500 mg); • Quercetin (500 mg) and Genistein (300 mg); • Myricetin (500 mg) and Berberine (750 mg).

Data set [2] concerns patients with non-erosive Gastro esophageal Reflux Disease (GERD). Particulars: cited from earlier work.

Read-outs that look alike come from different tables or passages of the source.

Take `COc1ccc2cc3[n+](cc2c1OC)CCc1cc2c(cc1-3)OCO2` [Berberine, 5,6-dihydro-9,10-dimehtoxybenzo[g]-1,3-benzodioxolo[5,6-a]quinolizinium]: in the data set with Par6, the “Par6 modulation (distribution of Par6 protein)” value (“Par6 modulation” for short) is recorded as “do not modulate Par6”.
Still for that read-out and setting: to `O=c1c(-c2ccc(O)cc2)coc2cc(O)cc(O)c12` [Genistein, 5,7-dihydro-3-(4-hydroxyphenyl)chromen-4-one] belongs “do not modulate Par6”.
As to `O=c1c(O)c(-c2cc(O)c(O)c(O)c2)oc2cc(O)cc(O)c12` [Myricetin, 3,5,7-Trihydroxy-2-(3,4,5-trihydroxyphenyl)-4H-1-benzopyran-4-one], in data set [1], the “subjects reporting reduction in severity of GERD, as well as reduced usage of PPIs” value was 10 subjects report reduction in severity of GERD, and the “effect on GERD (in words)” value is recorded as “reduction of GERD severity”. For the same compound, in the data set on Par6, the “Par6 modulation” value was “potent Par6 modulation”. Moreover, the toxicity entry in the data set with Par6 (screen of over 2000 compounds) is given as “low toxicity”.
Regarding `O=c1c(O)c(-c2ccc(O)c(O)c2)oc2cc(O)cc(O)c12` [Quercetin, 2-(3,4-dihydroxyphenyl)-3,5,7-trihydroxychromen-4-one], the “esophageal epithelial barrier function, resistance to injury upon contact with hydrochloric acid” value in data set [2] (500 mg orally twice daily (tablet) for 6 weeks, endoscopic biopsies before and after) is given as “increases esophageal epithelial barrier function”. Besides, the heartburn symptom improvement result in data set [2] (14 GERD sufferers, twice 500 mg daily, 6-week period) was “no report of consistent effects”. Also, in data set [1], the “subjects reporting reduction in severity of GERD, as well as reduced usage of PPIs” value is on record as 12 subjects report reduction in severity of GERD, and the “effect on GERD (in words)” value is on record as “reduction of GERD severity”. Also, in the data set on Par6, the toxicity result is “low toxicity” and the “Par6 modulation” value is “potent Par6 modulation”.
As for Antimycin A [reference compound], the “Par6 modulation” value with Par6 was “most potent compound in the test”. In addition, in the data set on Par6 (screen of over 2000 compounds), the toxicity result is listed as “toxic”.
